Source: paper PMC7832312, “Enhancing the Physiochemical Properties of Puerarin via L-Proline Co-Crystallization: Synthesis, Characterization, and Dissolution Studies of Two Phases of Pharmaceutical Co-Crystals” (International Journal of Molecular Sciences, 2021)
≈ marks a conversion by molar mass, not a printed value.

Key:
[1] = Dissolution rate measurement (UV, 250 mL medium, 150 RPM, 2 h, 37 °C); assay type: physicochemical; settings: for Time-dependent dissolution rate: 37 °C
Experimental: The solubility and dissolution studies of pure PUE, I, and II were measured using a Thermo Scientific Evolution 300 UV spectrometer in deionized water at pH 7.0, gastrointestinal tract at pH 1.2, and phosphate buffer at pH 6.8 solution at 37 °C. The concentration was calculated utilizing a standard curve, which was made by measuring the absorbance of different concentrations at their λmax. A superfluity sum of the sample was added to 10 mL of H2O medium, pH 1.2 and pH 6.8 phosphate, respectively.
(§1) The oversaturated solution was stirred at 500 RPM by magnetic stirring at 37 °C for 24 h and the suspension was filtered through Whatman’s […] syringe channel, diluted sufficiently and the absorbance was measured at their λmax. For the dissolution rate, the sample was specifically poured into 250 mL pH 7.0 water, pH 1.2 gastrointestinal tract, and pH 6.8 phosphates medium and then stirred at 150 RPM for 2h at 37 °C. Each solution was measured by the absorbance at λmax. At customary interims, the solution was replenished with 3 mL of the respective blank solution to maintain an overall steady volume.

CT-26 cancer cell lines = assay: Cytotoxicity evaluation by MTT assay, CT-26; assay type: cell-based, murine; settings: CT-26, culturing 24 h
Experimental: (§2) CT-26 and HEK-293 cell line was purchased from American Type Culture Collection (Manassas, VA, USA). The cell lines were cultured in RPMI 1640 (for CT-26) or DMEM (for HEK-293) containing 10% fetal bovine serum (FBS, Zhejiang Tianhang Biotechnology Co. Ltd., Hangzhou, China) and 1% penicillin/streptomycin (Zhejiang Tianhang Biotechnology Co. Ltd., Hangzhou, China). Cells grew as a monolayer and were detached upon confluence using trypsin (0.5% w/v in PBS, Zhejiang Tianhang Biotechnology Co. Ltd., Hangzhou, China). The cells were harvested from the cell culture medium by incubating in trypsin solution for 3 min. The cells were centrifuged, and the supernatant discarded. A 3 mL portion of serum-supplemented cell culture medium was added to neutralize any residual trypsin. The cells were re-suspended in serum-supplemented RPMI 1640 (for CT-26) or DMEM (for HEK-293) at a concentration of 5 × 10^4 cells per 1 mL. Cells were cultured at 37 °C and 5% CO2 for MTT studies.
(§3) The CT-26 or HEK-293 cells were seeded at a density of 1 × 10^4 cells per well in 100 µL of complete RPMI 1640 (CT-26) or DMEM (for HEK-293), and cultured for 16 h for attachment. The culture medium was then replaced by a serum-free medium containing various concentrations of pristine PUE, I, and II. […] After incubating the cells at 37 °C for 4 h, the MTT solution was removed and DMSO (100 μL) added to dissolve the formazan crystals formed, and the microplates were agitated for 5 min at a medium rate before the spectrophotometric measurement at a wavelength of 570 nm on a microplate reader. […] The relative cell viability (%) related to control cells was calculated by the formula below: V%=[A]experimental−[A]blank/[A]control−[A]blank×100% where V% is the percentage of cell viability, [A]experimental is the absorbance of the wells culturing the treated cells, [A]blank is the absorbance of the blank, and [A]control is the absorbance of the wells culturing untreated cells.

HEK-293 cell lines = assay: Cytotoxicity evaluation by MTT assay, HEK-293; assay type: cell-based, human; settings: HEK-293, culturing 24 h
Experimental: as §2, §3

[2] = Solubility measurement (UV, oversaturated solution stirred 24 h at 37 °C); assay type: physicochemical; settings: thermodynamic from solid, average of three replicates
Experimental: The concentration was calculated utilizing a standard curve, which was made by measuring the absorbance of different concentrations at their λmax. A superfluity sum of the sample was added to 10 mL of H2O medium, pH 1.2 and pH 6.8 phosphate, respectively.
as §1

[3] = cited from earlier work

SMILES: CCO.O.O.O=C(O)[C@@H]1CCCN1.O=c1c(-c2ccc(O)cc2)coc2c([C@@H]3O[C@H](CO)[C@@H](O)[C@H](O)[C@H]3O)c(O)ccc12.O=c1c(-c2ccc(O)cc2)coc2c([C@@H]3O[C@H](CO)[C@@H](O)[C@H](O)[C@H]3O)c(O)ccc12 [II, [PUE]2[PRO]∙EtOH∙(H2O)2]
- Time-dependent dissolution rate ([1]; Water, 5 min): 0.131 mg/mL
- Time-dependent dissolution rate ([1]; Water, 10 min): 0.210 mg/mL
- Time-dependent dissolution rate ([1]; Water, 15 min): 0.281 mg/mL
- Time-dependent dissolution rate ([1]; Water, 20 min): 0.457 mg/mL
- Time-dependent dissolution rate ([1]; Water, 25 min): 0.567 mg/mL
- Time-dependent dissolution rate ([1]; Water, 30 min): 0.701 mg/mL
- Time-dependent dissolution rate ([1]; Water, 40 min): 1.450 mg/mL
- Time-dependent dissolution rate ([1]; Water, 50 min): 2.110 mg/mL
- Time-dependent dissolution rate ([1]; Water, 60 min): 2.490 mg/mL
- Time-dependent dissolution rate ([1]; Water, 80 min): 2.840 mg/mL
- Time-dependent dissolution rate ([1]; Water, 100 min): 3.203 mg/mL
- Time-dependent dissolution rate ([1]; Water, 120 min): 3.410 mg/mL
- Time-dependent dissolution rate ([1]; pH 1.2, 5 min): 0.171 mg/mL
- Time-dependent dissolution rate ([1]; pH 1.2, 10 min): 0.240 mg/mL
- Time-dependent dissolution rate ([1]; pH 1.2, 15 min): 0.337 mg/mL
- Time-dependent dissolution rate ([1]; pH 1.2, 20 min): 0.417 mg/mL
- Time-dependent dissolution rate ([1]; pH 1.2, 25 min): 0.479 mg/mL
- Time-dependent dissolution rate ([1]; pH 1.2, 30 min): 0.534 mg/mL
- Time-dependent dissolution rate ([1]; pH 1.2, 40 min): 1.005 mg/mL
- Time-dependent dissolution rate ([1]; pH 1.2, 50 min): 1.342 mg/mL
- Time-dependent dissolution rate ([1]; pH 1.2, 60 min): 1.489 mg/mL
- Time-dependent dissolution rate ([1]; pH 1.2, 80 min): 1.683 mg/mL
- Time-dependent dissolution rate ([1]; pH 1.2, 100 min): 1.923 mg/mL
- Time-dependent dissolution rate ([1]; pH 1.2, 120 min): 2.005 mg/mL
- dissolution rate compared with the other forms ([1]; pH 1.2, pH 6.8, H2O pH 7.0): higher dissolution rate than both I and PUE
- Time-dependent dissolution rate ([1]; pH 6.8, 5 min): 0.121 mg/mL
- Time-dependent dissolution rate ([1]; pH 6.8, 10 min): 0.212 mg/mL
- Time-dependent dissolution rate ([1]; pH 6.8, 15 min): 0.352 mg/mL
- Time-dependent dissolution rate ([1]; pH 6.8, 20 min): 0.446 mg/mL
- Time-dependent dissolution rate ([1]; pH 6.8, 25 min): 0.537 mg/mL
- Time-dependent dissolution rate ([1]; pH 6.8, 30 min): 0.861 mg/mL
- Time-dependent dissolution rate ([1]; pH 6.8, 40 min): 1.059 mg/mL
- Time-dependent dissolution rate ([1]; pH 6.8, 50 min): 1.503 mg/mL
- Time-dependent dissolution rate ([1]; pH 6.8, 60 min): 2.210 mg/mL
- Time-dependent dissolution rate ([1]; pH 6.8, 80 min): 2.723 mg/mL
- Time-dependent dissolution rate ([1]; pH 6.8, 100 min): 3.138 mg/mL
- Time-dependent dissolution rate ([1]; pH 6.8, 120 min): 3.370 mg/mL
- cytotoxicity (MTT cell viability) (CT-26 cancer cell lines): negligible cytotoxicity
- cytotoxicity (MTT cell viability) (HEK-293 cell lines): negligible cytotoxicity

SMILES: O=c1c(-c2ccc(O)cc2)coc2c([C@@H]3O[C@H](CO)[C@@H](O)[C@H](O)[C@H]3O)c(O)ccc12 [PUE, Puerarin]
- solubility at 24 h ([2]; aqueous buffer, phosphate buffer at pH 6.8, 37 °C): 2490 µg/mL (≈ 5.97 mM)
- solubility at 24 h ([2]; deionized water, Distilled Water (pH 7.0), 37 °C): 2530 µg/mL (≈ 6.07 mM)
- solubility at 24 h ([2]; gastrointestinal tract medium pH 1.2, simulated gastric fluid, gastrointestinal tract at pH 1.2, 37 °C): 1510 µg/mL (≈ 3.63 mM)
- Time-dependent dissolution rate ([1]; Water, 5 min): 0.062 mg/mL
- Time-dependent dissolution rate ([1]; Water, 10 min): 0.109 mg/mL
- Time-dependent dissolution rate ([1]; Water, 15 min): 0.190 mg/mL
- Time-dependent dissolution rate ([1]; Water, 20 min): 0.250 mg/mL
- Time-dependent dissolution rate ([1]; Water, 25 min): 0.294 mg/mL
- Time-dependent dissolution rate ([1]; Water, 30 min): 0.506 mg/mL
- Time-dependent dissolution rate ([1]; Water, 40 min): 0.611 mg/mL
- Time-dependent dissolution rate ([1]; Water, 50 min): 0.692 mg/mL
- Time-dependent dissolution rate ([1]; Water, 60 min): 0.821 mg/mL
- Time-dependent dissolution rate ([1]; Water, 80 min): 0.896 mg/mL
- Time-dependent dissolution rate ([1]; Water, 100 min): 0.935 mg/mL
- Time-dependent dissolution rate ([1]; Water, 120 min): 1.031 mg/mL
- Time-dependent dissolution rate ([1]; pH 1.2, 5 min): 0.008 mg/mL
- Time-dependent dissolution rate ([1]; pH 1.2, 10 min): 0.019 mg/mL
- Time-dependent dissolution rate ([1]; pH 1.2, 15 min): 0.023 mg/mL
- Time-dependent dissolution rate ([1]; pH 1.2, 20 min): 0.030 mg/mL
- Time-dependent dissolution rate ([1]; pH 1.2, 25 min): 0.035 mg/mL
- Time-dependent dissolution rate ([1]; pH 1.2, 30 min): 0.043 mg/mL
- Time-dependent dissolution rate ([1]; pH 1.2, 40 min): 0.163 mg/mL
- Time-dependent dissolution rate ([1]; pH 1.2, 50 min): 0.354 mg/mL
- Time-dependent dissolution rate ([1]; pH 1.2, 60 min): 0.394 mg/mL
- Time-dependent dissolution rate ([1]; pH 1.2, 80 min): 0.435 mg/mL
- Time-dependent dissolution rate ([1]; pH 1.2, 100 min): 0.568 mg/mL
- Time-dependent dissolution rate ([1]; pH 1.2, 120 min): 0.685 mg/mL
- Time-dependent dissolution rate ([1]; pH 6.8, 5 min): 0.078 mg/mL
- Time-dependent dissolution rate ([1]; pH 6.8, 10 min): 0.110 mg/mL
- Time-dependent dissolution rate ([1]; pH 6.8, 15 min): 0.168 mg/mL
- Time-dependent dissolution rate ([1]; pH 6.8, 20 min): 0.244 mg/mL
- Time-dependent dissolution rate ([1]; pH 6.8, 25 min): 0.274 mg/mL
- Time-dependent dissolution rate ([1]; pH 6.8, 30 min): 0.347 mg/mL
- Time-dependent dissolution rate ([1]; pH 6.8, 40 min): 0.415 mg/mL
- Time-dependent dissolution rate ([1]; pH 6.8, 50 min): 0.444 mg/mL
- Time-dependent dissolution rate ([1]; pH 6.8, 60 min): 0.504 mg/mL
- Time-dependent dissolution rate ([1]; pH 6.8, 80 min): 0.560 mg/mL
- Time-dependent dissolution rate ([1]; pH 6.8, 100 min): 0.641 mg/mL
- Time-dependent dissolution rate ([1]; pH 6.8, 120 min): 0.785 mg/mL
- cytotoxicity (MTT cell viability) (CT-26 cancer cell lines): negligible cytotoxicity
- cytotoxicity (MTT cell viability) (HEK-293 cell lines): negligible cytotoxicity
- elimination half-life [3]: short
- oral bioavailability [3]: about 7%
